Data on three molecules can be found in patent US9868763B2, “Modulators of protease activated receptors” (The University of Queensland, priority 2011, dated 2018).

Where only a bound is given, the exact number is not on record here.

The test system of experiment [1] is human monocyte derived macrophages (HMDMs). In words: Palmitic acid stimulation of human monocyte derived macrophages. In kind it is cell-based. The method, then:
To investigate if PAR2 is specifically linked to macrophage inflammation, the effect of palmitic acid on mRNA levels of PARs on human monocyte derived macrophages (HMDMs) was measured (FIG. 12). […] The increase of PAR2 mRNA in HMDM in the presence of palmitic acid was dose-dependent (FIG. 12B). Fold change in PAR2 was calculated relative to untreated sample. FIGS. 12C and D illustrate that palmitic acid stimulates proinflammition cytokines, IL-6 and IL-8, secretion from HMDM. Error bars are means±SEM; *P<0.05, **P<0.01, ***P<0.001.

The test system of the next experiment is MIN6 beta cells. Put plainly: Glucose-stimulated insulin secretion (GSIS). Format: cell-based, mouse. The following applies: 52 as pre-treatment before 2f-LIGRLO-NH2. The method, then: Rat pancreas and mouse MIN6 beta cells were cultured in DMEM (25 mM glucose) supplemented with 15% fetal calf serum, 10 U/mL penicillin, 10 U/mL streptomycin, 2 mM L-glutamine and […] 2-mercaptoethanol. MIN6 beta cells were passaged and harvested using non-enzymatic cell dissociation solution (Sigma-Aldrich). Glucose-stimulated insulin secretion (GSIS) was performed as described next. MIN6 beta cells were seeded at 0.8×106 mL in a 96-well plate and cultured for 48 h. Cells were washed twice with glucose-free Krebs buffer (NaCl 119 mM, KCl 4.74 mM, CaCl2 2.54 mM, MgCl2 1.19 mM, KH2PO4 1.19 mM, NaHCO3 25 mM, HEPES (pH 7.4) 10 mM and 0.05% BSA). Cells were pre-treated with compound 52 for 30 min with Krebs buffer supplemented with 2.5 mM glucose. After incubation, cells were washed twice with glucose-free Krebs buffer. Glucose (2.5 mM and 25 mM) and compounds were added at specified concentration and incubated for 1 h. Supernatants were collected and insulin concentrations were determined by ELISA (Abeam).

For experiment [2], the target named is T1, PAR2 (Mus musculus, UniProt P55086).
T1 construct: endogenous in cells; host or cells: MIN6 (mouse pancreatic beta cell line)
T1 sequence (P55086 26-399): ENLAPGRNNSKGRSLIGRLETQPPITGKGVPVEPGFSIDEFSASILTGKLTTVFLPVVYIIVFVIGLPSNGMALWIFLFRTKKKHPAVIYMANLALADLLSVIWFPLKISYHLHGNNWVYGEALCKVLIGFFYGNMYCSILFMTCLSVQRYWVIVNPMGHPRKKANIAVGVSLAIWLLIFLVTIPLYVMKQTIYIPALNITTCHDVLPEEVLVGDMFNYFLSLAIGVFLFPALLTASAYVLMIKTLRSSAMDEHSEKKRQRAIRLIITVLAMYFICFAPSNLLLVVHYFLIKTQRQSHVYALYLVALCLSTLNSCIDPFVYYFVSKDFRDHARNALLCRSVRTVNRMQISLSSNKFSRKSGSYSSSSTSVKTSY
In words: Intracellular calcium mobilization in MIN6 beta cells. In kind it is cell-based. The note with it: concentration-dependent. The method, then: Results: Pathogenesis of pancreatic dysfunction is linked to chronic nutritional surplus and elevated fatty acids, so in vivo and in vitro effects of compound 52 were evaluated on rat pancreas and mouse MIN6 beta cells. […] PAR2 agonists and compound 52 were further evaluated in vitro for glucose-stimulated insulin secretion (GSIS) and intracellular calcium mobilization in mouse MIN6 beta cells.
Background: A change in cytosolic calcium serves as a functional read-out for many receptors and channels.

Experiment [3] has as its target T2, PAR2 (Homo sapiens, UniProt P55085).
T2 sequence (P55085 26-397): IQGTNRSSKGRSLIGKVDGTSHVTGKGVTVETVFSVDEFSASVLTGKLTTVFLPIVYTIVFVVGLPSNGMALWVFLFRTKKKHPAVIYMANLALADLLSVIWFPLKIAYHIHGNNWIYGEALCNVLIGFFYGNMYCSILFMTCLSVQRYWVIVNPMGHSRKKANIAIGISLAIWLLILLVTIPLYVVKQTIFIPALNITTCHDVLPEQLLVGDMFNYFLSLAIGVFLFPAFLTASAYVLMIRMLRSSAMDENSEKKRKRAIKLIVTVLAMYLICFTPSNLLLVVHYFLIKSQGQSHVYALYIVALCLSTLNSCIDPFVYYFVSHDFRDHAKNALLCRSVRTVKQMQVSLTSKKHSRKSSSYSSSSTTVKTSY
Put plainly: Colonocyte modulation: intracellular calcium mobilization in HT29 cells. The following applies: HT29 colonocytes, 15 min before 2Furoyl-LIGRLO-NH2. On the set-up: endogenous in cells; host or cells: HT29 (human colorectal adenocarcinoma). Format: cell-based. The method, then:
Human colorectal adenocarcinoma (HT29) cells were incubated with a calcium binding dye ([…]) buffer for 1 h at 37° C. […] Intracellular calcium mobilization was measured by differences in fluorescence plotted against corresponding antagonist concentrations, enabling the determination of antagonist potency.

Experiment [4] concerns 2furoyl-LIGRLO-NH2-induced paw oedema. Put plainly: PAR2 agonist-induced paw oedema. Format: in vivo, Wistar rat. The following applies: s.c.; 52 10 mg/kg, ENMD-1068 100 mg/kg; agonist 350 μg/paw. The method, then: The methods used are based on those previously described (Kelso, E. B., et al. Arthritis Rheum 2007, 56, 765-71; Kelso, E. B., et al. J Pharmacol Exp Ther 2006, 316, 1017-24; and Vergnolle, N. J Immunol 1999, 163, 5064-9). Male Wistar rats (n=3 per group) are used. Briefly, rats are given either 5 or 10 mg/kg of a compound of the present invention (p.o. via gavage in olive oil, approx. 500 μL, weight adjusted). Control animals receive only olive oil (500 μL p.o.). Two hours later, the PAR2 agonist 2-furoyl-LIGRLO (350 μg/paw in saline, 100 μL) is injected into the plantar surface (i.pl.) of the right paw pad using a 30 G needle. The left paw acts as a control, receiving saline only. Paw thickness and width are measured after 30 minutes and hourly using digital calipers (World Precision Instruments, USA) and swelling is calculated in area (mm^2; thickness multiplied by width) and expressed as a percentage change from baseline of each individual paw.
Based on previous methods (Kelso E B et al., J Pharmacol Exp Ther 2006, 316(3):1017-24; Suen J Y et al., Br J Pharmacol 2011, doi: 10.1111/j.1476-5381.2011.01610.x.), PAR2 antagonist 52 (10 mg/kg s.c.; n=4), ENMD-1068 (100 mg/kg s.c.; n=4) or vehicle control (DMSO s.c.; n=2) were administered to male Wistar rats. Baseline paw thickness and width were measured using digital calipers (World Precision Instruments, USA) expressed in area (mm^2; thickness×width). Fifteen minutes later, 2Furoyl-LIGLRO-NH2 (350 μg/paw in 100 μL saline) was injected into of the right hind paw pad (intraplantar, i.pl.). The left hind paw acted as a control, receiving saline only. In a separate experiment, vehicle (500 μL olive oil) versus PAR2 antagonist 52 (10 mg/kg p.o. in 500 μL olive oil) only were administered orally to two groups of rats (4 per group). Two hours later, β-tryptase (human recombinant lung, 20 μg in 100 μL saline) was injected into the right hind paw pad (vehicle in left for control) of all animals in each group. In all experiments, paw swelling was measured and expressed in area (mm^2; thickness×width) and plotted as % change from baseline of each individual paw.

By IC50 is commonly meant the concentration that inhibits the measured activity by half.

On to `CCCCCCCCCCCCCCCC(=O)O` [palmitic acid], for which the “IL-6 and IL-8 secretion from HMDM” value in experiment [1] is recorded as “stimulates”. The “increase in mRNA concentrations of PAR2” value in experiment [1] (HMDM, concentration dependent, relative to untreated) is < 20 fold.

For the molecule 2f-LIGRLO-NH2 [reference compound], the glucose-stimulated insulin secretion result in the experiment with MIN6 beta cells is recorded as “inhibited glucose stimulated insulin sensitivity”. In addition, the “intracellular calcium release in MIN6 beta cells” value on PAR2 [2] is reported as “activated intracellular calcium release”.

For `CC(C)CC(=O)N1CCN(C(=O)CCCCCN)CC1` [ENMD-1068, N1-3-methylbutyryl-N4-6-aminohexanoyl-piperazine, reference compound], on PAR2 [3], the 50% inhibitory concentration (IC50) is 5 mM. In experiment [4], the “paw oedema induced by 2furoyl-LIGRLO-NH2” value is given as “had no effect”.
